Data reported in article PMC3494461 (Journal of the American Chemical Society, 2012).

Columns and labels:
DXP synthase [1] = molecular target: T1, DXP synthase (Escherichia coli, UniProt P77488); test: steady-state DXP formation, Michaelis-Menten plot; type: biochemical; conditions: D-GAP supplied as D,L-GAP; with pyruvate
T1 sequence (P77488 2-620): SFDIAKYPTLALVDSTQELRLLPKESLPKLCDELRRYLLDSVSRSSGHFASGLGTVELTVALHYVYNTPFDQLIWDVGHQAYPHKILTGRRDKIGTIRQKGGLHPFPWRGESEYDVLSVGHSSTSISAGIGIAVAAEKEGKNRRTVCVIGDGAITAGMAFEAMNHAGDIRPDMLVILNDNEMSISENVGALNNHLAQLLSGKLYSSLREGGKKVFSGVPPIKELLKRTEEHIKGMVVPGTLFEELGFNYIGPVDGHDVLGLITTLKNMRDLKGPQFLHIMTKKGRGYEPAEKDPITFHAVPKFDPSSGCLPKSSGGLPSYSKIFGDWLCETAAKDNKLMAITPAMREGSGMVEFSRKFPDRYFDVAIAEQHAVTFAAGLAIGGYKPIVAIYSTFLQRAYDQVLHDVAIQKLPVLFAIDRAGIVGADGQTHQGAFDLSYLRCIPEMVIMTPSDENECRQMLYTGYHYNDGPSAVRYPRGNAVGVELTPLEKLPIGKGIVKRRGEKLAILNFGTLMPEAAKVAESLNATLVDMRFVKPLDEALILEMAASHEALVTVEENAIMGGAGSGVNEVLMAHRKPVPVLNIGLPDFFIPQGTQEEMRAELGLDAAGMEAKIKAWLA

DXP synthase [2] = molecular target: T1, DXP synthase; test: near-UV CD of enzyme-bound ThDP; type: binding; conditions: AP tautomer dominant at pH 7.98
DXP synthase [3] = molecular target: T1, DXP synthase; test: CD titration at […] nm; type: binding

`O=C[C@H](O)COP(=O)(O)O` [D-GAP] was tested, and the Km (DXP synthase [1]) was “Michaelis-Menten plot to determine the Km for D-GAP”.
In the case of `Cc1ncc(C[n+]2csc(CCOP(=O)(O)OP(=O)(O)O)c2C)c(N)n1` [ThDP], the “near-UV CD of enzyme-bound ThDP (negative band at 320 nm)” value (DXP synthase [2]) is reported as “suggesting the preponderance of the AP tautomer of ThDP bound to the enzyme”.
Compound `CC(=O)C(=O)O` [pyruvate] has a Kd (DXP synthase [3]) of ~90 µM.
